Measured values as given in patent US9695155B2, “Herbicidal substituted pyrimidinyloxy benzene compounds” (E. I. DU PONT DE NEMOURS AND COMPANY, priority 2013, dated 2017).

Tests used:
[1] = system: kochia; experiment: Test C postemergence; type: in vivo, Kochia scoparia
In short: (§1)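 Seeds were sown in loam–sand blend and sprayed preemergence, while plants at 1- to 4-leaf stage (2–18 cm) in peat-based medium received postemergence sprays; test chemicals were formulated in a non-phytotoxic solvent with surfactant. After 13–15 days in a greenhouse, injury was rated visually against controls, 0 (no effect) to 100 (complete control).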

[2] = system: giant foxtail; experiment: Test C postemergence; type: in vivo, Setaria faberii
In short: as §1

[3] = system: yellow nutsedge; experiment: Test C postemergence; type: in vivo, Cyperus esculentus
In short: as §1

[4] = system: large (Lg) crabgrass; experiment: Test C preemergence; type: in vivo, Digitaria sanguinalis; details: for Crabgrass, Large plant response rating: preemergence
In short: as §1

[5] = system: corn; experiment: Test A postemergence; type: in vivo, Zea mays; details: 0 to 100 scale where 0 is no effect and 100 is complete control
In short: (§2)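 Injury scores run from 0, no effect, to 100, complete control, judged by eye against untreated plants roughly 10 days after treatment. Chemicals carried a surfactant in a non-phytotoxic solvent and went onto loam–sand soil preemergence or onto one- to two-leaf seedlings postemergence.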

[6] = system: barnyardgrass; experiment: Test C postemergence; type: in vivo, Echinochloa crus-galli
In short: as §1

[7] = system: blackgrass; experiment: Test C postemergence; type: in vivo, Alopecurus myosuroides
In short: as §1

[8] = system: giant foxtail; experiment: Test A postemergence; type: in vivo, Setaria faberii; details: 0 to 100 scale where 0 is no effect and 100 is complete control
In short: as §2

[9] = system: wheat, winter; experiment: Test C postemergence; type: in vivo, Triticum aestivum
In short: as §1

[10] = system: corn; experiment: Test C postemergence; type: in vivo, Zea mays
In short: as §1

[11] = system: corn; experiment: Test C preemergence; type: in vivo, Zea mays; details: for Corn plant response rating: preemergence
In short: as §1

[12] = system: pigweed; experiment: Test C preemergence; type: in vivo, Amaranthus retroflexus; details: for Pigweed plant response rating: preemergence
In short: as §1

[13] = system: lambsquarters; experiment: Test C preemergence; type: in vivo, Chenopodium album; details: for Lambsquarters plant response rating: preemergence
In short: as §1

[14] = 16 g ai/ha, postemergence, 0 is no effect, 100 is complete control
[15] = 31 g ai/ha, postemergence, visual rating, scale 0 to 100 (0 no effect, 100 complete control), 13 to 15 days
[16] = 125 g ai/ha, postemergence, visual rating, scale 0 to 100 (0 no effect, 100 complete control)
[17] = Postemergence, 62 g ai/ha, scale 0 to 100 (0 no effect, 100 complete control), 13 to 15 days
[18] = 16 g ai/ha, scale 0 to 100 (0 no effect, 100 complete control)
[19] = 125 g ai/ha, scale 0 (no effect) to 100 (complete control)
[20] = Preemergence, 62 g ai/ha, scale 0 to 100, 0 no effect, 100 complete control

## N#Cc1cnn(-c2c(Oc3ncc(Cl)cn3)cccc2C(F)F)c1 [Compound 236]
[1]; [14]
  Plant response rating (0 to 100), Kochia: 30
[1]; [15]
  Kochia plant response rating: 80
[1]; [16]
  Plant response rating, Kochia: 90
[1]; [17]
  Plant response rating, Kochia: 85
[2]; [14]
  Plant response rating (0 to 100), Foxtail, Giant: 5
[2]; [15]
  Foxtail, Giant plant response rating: 50
[2]; [16]
  Plant response rating, Foxtail, Giant: 15
[2]; [17]
  Plant response rating, Foxtail, Giant: 15
[3]; [14]
  Plant response rating (0 to 100), Nutsedge, Yellow: 0
[3]; [15]
  Nutsedge, Yellow plant response rating: 0
[3]; [16]
  Plant response rating, Nutsedge, Yellow: 5
[3]; [17]
  Plant response rating, Nutsedge, Yellow: 0
[4]; [18]
  Crabgrass, Large plant response rating: 90
[4]; [19]
  Crabgrass, Large plant response rating: 100
[4]; [20]
  Plant response rating, Crabgrass, Large: 100
[5]; 125 g ai/ha
  Corn plant response rating: 70
[5]; 500 g ai/ha
  Plant response rating, Corn: 100
[6]; [14]
  Plant response rating (0 to 100), Barnyardgrass: 5
[6]; [15]
  Barnyardgrass plant response rating: 5
[6]; [16]
  Plant response rating, Barnyardgrass: 10
[6]; Postemergence, 62 g ai/ha, scale 0 to 100 (0 no effect, 100 complete control)
  Plant response rating, Barnyardgrass: 5
[7]; [14]
  Plant response rating (0 to 100), Blackgrass: 0
[7]; [15]
  Blackgrass plant response rating: 5
[7]; [16]
  Plant response rating, Blackgrass: 20
[7]; [17]
  Plant response rating, Blackgrass: 5
[8]; 125 g ai/ha
  Foxtail, Giant plant response rating: 90
[8]; 500 g ai/ha
  Plant response rating, Foxtail, Giant: 100
[9]; [14]
  Plant response rating (0 to 100), Wheat: 0
[9]; [15]
  Wheat plant response rating: 0
[9]; [16]
  Plant response rating, Wheat: 0
[9]; [17]
  Plant response rating, Wheat: 0
[10]; [14]
  Plant response rating (0 to 100), Corn: 5
[10]; [15]
  Corn plant response rating: 5
[10]; [16]
  Plant response rating, Corn: 10
[10]; [17]
  Plant response rating, Corn: 5
[11]; [18]
  Corn plant response rating: 0
[11]; [19]
  Corn plant response rating: 90
[11]; [20]
  Plant response rating, Corn: 10
[12]; [18]
  Pigweed plant response rating: 100
[12]; [19]
  Pigweed plant response rating: 100
[12]; [20]
  Plant response rating, Pigweed: 100
[13]; [18]
  Lambsquarters plant response rating: 98
[13]; [19]
  Lambsquarters plant response rating: 100
[13]; [20]
  Plant response rating, Lambsquarters: 100
